Measurements as given in ChEMBL document CHEMBL1201862, “PubChem BioAssay data set” (2004).
Activity calls are given as the source filed them.

What was measured:
[1] = Luminescence-based dose response cell-based high throughput screening assay for cytotoxic compounds using the IEC-6 intestinal epithelial cell line. [Related pubchem assays: 1858 (Summary AID.), 1825 (Counterscreen.), 1907 (Confirmation screen.)]; format: functional
[2] = molecular target: T1, Heat shock factor protein 1 (Mus musculus, UniProt P38532); assay: inhibition of MG132-induced HSE-luciferase signal, confirmation, cell-based, NIH3T3, luminescence, dose retest (AID 2382); format: functional;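 further: NIH3T3 fibroblasts with HSF1-driven luciferase reporter stressed by proteasome inhibitor MG132; luminescence from HSF1-driven luciferase expression after 8 hours of MG132 stress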
T1 sequence (P38532 whole entry): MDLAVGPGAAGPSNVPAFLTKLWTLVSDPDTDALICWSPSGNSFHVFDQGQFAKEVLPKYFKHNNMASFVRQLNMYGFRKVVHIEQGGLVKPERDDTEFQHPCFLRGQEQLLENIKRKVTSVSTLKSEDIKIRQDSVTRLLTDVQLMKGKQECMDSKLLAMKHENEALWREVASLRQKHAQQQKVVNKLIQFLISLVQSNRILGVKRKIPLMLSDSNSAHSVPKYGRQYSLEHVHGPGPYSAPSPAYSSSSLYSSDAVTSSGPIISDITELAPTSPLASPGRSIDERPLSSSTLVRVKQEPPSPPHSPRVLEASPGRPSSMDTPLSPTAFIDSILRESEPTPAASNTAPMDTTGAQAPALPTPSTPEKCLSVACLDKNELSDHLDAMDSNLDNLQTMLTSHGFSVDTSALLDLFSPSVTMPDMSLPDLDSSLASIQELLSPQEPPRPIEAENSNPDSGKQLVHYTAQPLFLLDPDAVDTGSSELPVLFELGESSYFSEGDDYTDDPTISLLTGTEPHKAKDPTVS

[3] = molecular target: Peroxisome proliferator-activated receptor gamma/Nuclear receptor coactivator 1 (Homo sapiens, UniProt P37231); format: functional;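 further: agonist potency as compounds enhance coactivator SRC-1 recruitment to PPARgamma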
[4] = molecular target: T2, Hexokinase-1 (Homo sapiens, UniProt P19367); assay: hexokinase 1 activators, dose response, selectivity assay for HKDC1 activator project, biochemical (AID 504762); format: functional
T2 sequence (P19367 whole entry): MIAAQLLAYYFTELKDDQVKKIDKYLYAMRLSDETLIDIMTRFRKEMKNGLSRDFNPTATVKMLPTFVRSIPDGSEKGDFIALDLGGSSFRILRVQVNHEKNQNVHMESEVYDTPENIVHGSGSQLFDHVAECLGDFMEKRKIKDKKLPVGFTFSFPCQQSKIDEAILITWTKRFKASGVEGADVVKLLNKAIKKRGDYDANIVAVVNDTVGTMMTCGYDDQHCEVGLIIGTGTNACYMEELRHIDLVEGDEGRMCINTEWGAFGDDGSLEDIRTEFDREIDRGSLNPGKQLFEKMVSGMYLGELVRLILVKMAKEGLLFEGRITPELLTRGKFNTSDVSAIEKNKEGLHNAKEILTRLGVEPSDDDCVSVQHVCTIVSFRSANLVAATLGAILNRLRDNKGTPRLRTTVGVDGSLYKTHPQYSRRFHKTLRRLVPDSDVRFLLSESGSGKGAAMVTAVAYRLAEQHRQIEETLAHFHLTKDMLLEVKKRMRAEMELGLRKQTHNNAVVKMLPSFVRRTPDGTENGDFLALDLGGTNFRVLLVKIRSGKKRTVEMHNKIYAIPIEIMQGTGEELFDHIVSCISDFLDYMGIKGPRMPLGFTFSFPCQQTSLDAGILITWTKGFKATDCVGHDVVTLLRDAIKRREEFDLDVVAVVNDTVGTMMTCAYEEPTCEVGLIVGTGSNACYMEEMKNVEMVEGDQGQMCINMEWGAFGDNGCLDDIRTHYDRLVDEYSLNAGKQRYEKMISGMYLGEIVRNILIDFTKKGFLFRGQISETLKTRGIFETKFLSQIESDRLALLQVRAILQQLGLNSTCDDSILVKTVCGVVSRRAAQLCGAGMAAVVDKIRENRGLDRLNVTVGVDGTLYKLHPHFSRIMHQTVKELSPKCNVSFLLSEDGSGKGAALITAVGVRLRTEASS

[5] = growth suppression of PTEN-null colon cells, dose response, cell-based, HCT116 PTEN knockout (AID 1047); format: functional;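 further: HCT116 colon tumor cells with PTEN knocked out; cells exposed to compound for 60 hours before readout; potency for loss of cell viability measured by luminescence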
[6] = molecular target: Peroxisome proliferator-activated receptor gamma/Nuclear receptor coactivator 3 (Homo sapiens, UniProt P37231); format: functional;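 further: agonist potency for raising coactivator recruitment to the receptor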
[7] = molecular target: T3, Short transient receptor potential channel 4 (Mus musculus, UniProt Q9QUQ5); assay: mouse TRPC4 channel inhibitors, dose response, cell-based, HEK293 TRPC4/mu-opioid, Fluo-4 calcium (AID 434942); format: functional;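 further: potency of inhibitors blocking the TRPC4 calcium response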
T3 sequence (Q9QUQ5 whole entry): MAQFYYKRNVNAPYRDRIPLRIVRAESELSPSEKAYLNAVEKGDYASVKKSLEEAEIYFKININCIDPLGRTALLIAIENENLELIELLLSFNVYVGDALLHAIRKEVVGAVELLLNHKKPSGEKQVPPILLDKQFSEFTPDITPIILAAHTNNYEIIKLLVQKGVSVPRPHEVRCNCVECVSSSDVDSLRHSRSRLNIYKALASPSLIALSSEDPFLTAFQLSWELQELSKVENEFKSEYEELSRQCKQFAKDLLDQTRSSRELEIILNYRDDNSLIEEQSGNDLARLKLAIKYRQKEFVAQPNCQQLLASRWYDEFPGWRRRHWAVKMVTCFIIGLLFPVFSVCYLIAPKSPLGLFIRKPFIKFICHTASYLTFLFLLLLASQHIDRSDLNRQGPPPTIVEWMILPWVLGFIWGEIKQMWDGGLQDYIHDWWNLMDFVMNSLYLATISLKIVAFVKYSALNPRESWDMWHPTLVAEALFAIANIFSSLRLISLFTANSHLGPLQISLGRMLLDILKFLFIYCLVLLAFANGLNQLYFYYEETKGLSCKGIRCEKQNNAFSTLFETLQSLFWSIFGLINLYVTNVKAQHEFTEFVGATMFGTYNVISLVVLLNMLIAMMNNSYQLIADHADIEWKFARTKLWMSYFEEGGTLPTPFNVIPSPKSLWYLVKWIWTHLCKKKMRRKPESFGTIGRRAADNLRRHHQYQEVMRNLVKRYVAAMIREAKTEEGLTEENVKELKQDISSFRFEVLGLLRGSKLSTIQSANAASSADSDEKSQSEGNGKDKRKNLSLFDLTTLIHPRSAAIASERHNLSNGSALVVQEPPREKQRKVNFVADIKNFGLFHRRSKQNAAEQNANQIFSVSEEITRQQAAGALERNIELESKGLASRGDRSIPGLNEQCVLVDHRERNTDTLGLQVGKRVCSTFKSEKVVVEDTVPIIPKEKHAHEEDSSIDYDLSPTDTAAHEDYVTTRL

[8] = inhibitors of HIV Env-driven cell fusion, dose response, cherry-pick (AID 652057); format: functional, cell-based
[9] = molecular target: Eukaryotic translation initiation factor 4E (Mus musculus, UniProt P63073); assay: eIF4E–eIF4G protein interaction inhibitors, dose response, biochemical, TR-FRET (AID 855); format: functional;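 further: potency for disrupting eIF4E binding to eIF4GI seen as loss of FRET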
Sequence of Eukaryotic translation initiation factor 4E (P63073 whole entry): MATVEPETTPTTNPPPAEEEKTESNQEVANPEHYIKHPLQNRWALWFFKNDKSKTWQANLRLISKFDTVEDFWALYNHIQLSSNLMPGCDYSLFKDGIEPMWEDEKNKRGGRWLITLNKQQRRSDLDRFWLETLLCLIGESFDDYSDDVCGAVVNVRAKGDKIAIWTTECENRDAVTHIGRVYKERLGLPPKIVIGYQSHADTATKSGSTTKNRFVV

Sequence of Peroxisome proliferator-activated receptor gamma/Nuclear receptor coactivator 3 (P37231 whole entry): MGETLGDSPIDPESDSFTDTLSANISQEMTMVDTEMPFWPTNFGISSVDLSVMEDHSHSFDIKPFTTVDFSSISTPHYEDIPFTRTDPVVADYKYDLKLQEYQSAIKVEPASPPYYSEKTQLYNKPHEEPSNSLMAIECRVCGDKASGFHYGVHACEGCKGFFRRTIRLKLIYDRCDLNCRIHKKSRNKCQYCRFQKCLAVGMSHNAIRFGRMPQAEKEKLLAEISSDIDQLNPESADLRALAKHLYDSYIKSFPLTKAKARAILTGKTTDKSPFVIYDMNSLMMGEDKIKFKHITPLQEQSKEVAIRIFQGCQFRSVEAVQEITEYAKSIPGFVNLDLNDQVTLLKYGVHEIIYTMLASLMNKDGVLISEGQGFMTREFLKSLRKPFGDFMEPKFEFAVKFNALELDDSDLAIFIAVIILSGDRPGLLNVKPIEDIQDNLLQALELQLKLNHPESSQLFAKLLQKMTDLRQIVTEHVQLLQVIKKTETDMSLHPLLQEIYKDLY
Sequence of Peroxisome proliferator-activated receptor gamma/Nuclear receptor coactivator 3 (Q9Y6Q9 whole entry, further chain): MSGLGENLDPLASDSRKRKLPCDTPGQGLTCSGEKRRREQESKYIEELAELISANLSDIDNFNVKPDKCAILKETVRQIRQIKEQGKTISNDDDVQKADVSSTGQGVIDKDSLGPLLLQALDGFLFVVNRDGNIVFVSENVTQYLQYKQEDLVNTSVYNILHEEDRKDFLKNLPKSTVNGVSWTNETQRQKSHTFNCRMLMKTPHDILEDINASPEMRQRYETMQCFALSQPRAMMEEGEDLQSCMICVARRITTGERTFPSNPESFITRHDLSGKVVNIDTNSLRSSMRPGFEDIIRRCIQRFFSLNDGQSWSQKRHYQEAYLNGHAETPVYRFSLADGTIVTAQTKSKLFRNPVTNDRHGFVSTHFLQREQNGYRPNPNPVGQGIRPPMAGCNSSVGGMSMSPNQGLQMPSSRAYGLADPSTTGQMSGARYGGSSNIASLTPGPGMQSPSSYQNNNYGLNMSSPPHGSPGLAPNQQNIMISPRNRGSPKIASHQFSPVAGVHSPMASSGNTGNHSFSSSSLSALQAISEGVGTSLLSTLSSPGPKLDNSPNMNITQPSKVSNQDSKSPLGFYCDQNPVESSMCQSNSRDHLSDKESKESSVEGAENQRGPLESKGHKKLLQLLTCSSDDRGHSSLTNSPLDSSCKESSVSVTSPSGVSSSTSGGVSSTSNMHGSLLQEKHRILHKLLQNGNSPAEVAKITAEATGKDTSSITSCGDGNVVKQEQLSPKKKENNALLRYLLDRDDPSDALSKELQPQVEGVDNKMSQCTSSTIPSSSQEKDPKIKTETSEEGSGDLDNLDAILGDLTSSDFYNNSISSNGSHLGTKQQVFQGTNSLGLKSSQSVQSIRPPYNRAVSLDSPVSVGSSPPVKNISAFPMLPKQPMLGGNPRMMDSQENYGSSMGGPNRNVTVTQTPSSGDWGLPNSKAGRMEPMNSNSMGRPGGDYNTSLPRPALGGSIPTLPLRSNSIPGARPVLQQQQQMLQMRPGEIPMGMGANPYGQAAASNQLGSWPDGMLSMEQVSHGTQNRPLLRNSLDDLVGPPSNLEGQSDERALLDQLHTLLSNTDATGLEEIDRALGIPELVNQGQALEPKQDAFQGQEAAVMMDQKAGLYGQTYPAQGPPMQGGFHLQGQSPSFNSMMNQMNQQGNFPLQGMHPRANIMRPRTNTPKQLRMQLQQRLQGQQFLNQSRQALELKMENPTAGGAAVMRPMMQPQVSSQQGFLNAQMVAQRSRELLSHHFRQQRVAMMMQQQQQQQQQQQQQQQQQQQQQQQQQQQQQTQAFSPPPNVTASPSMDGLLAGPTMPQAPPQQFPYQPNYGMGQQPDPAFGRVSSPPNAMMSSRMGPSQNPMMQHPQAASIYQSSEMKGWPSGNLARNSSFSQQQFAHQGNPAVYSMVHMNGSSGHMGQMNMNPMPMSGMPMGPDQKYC
Sequence of Peroxisome proliferator-activated receptor gamma/Nuclear receptor coactivator 1 (P37231 whole entry): as the sequence (P37231 whole entry) above
Sequence of Peroxisome proliferator-activated receptor gamma/Nuclear receptor coactivator 1 (Q15788 whole entry, further chain): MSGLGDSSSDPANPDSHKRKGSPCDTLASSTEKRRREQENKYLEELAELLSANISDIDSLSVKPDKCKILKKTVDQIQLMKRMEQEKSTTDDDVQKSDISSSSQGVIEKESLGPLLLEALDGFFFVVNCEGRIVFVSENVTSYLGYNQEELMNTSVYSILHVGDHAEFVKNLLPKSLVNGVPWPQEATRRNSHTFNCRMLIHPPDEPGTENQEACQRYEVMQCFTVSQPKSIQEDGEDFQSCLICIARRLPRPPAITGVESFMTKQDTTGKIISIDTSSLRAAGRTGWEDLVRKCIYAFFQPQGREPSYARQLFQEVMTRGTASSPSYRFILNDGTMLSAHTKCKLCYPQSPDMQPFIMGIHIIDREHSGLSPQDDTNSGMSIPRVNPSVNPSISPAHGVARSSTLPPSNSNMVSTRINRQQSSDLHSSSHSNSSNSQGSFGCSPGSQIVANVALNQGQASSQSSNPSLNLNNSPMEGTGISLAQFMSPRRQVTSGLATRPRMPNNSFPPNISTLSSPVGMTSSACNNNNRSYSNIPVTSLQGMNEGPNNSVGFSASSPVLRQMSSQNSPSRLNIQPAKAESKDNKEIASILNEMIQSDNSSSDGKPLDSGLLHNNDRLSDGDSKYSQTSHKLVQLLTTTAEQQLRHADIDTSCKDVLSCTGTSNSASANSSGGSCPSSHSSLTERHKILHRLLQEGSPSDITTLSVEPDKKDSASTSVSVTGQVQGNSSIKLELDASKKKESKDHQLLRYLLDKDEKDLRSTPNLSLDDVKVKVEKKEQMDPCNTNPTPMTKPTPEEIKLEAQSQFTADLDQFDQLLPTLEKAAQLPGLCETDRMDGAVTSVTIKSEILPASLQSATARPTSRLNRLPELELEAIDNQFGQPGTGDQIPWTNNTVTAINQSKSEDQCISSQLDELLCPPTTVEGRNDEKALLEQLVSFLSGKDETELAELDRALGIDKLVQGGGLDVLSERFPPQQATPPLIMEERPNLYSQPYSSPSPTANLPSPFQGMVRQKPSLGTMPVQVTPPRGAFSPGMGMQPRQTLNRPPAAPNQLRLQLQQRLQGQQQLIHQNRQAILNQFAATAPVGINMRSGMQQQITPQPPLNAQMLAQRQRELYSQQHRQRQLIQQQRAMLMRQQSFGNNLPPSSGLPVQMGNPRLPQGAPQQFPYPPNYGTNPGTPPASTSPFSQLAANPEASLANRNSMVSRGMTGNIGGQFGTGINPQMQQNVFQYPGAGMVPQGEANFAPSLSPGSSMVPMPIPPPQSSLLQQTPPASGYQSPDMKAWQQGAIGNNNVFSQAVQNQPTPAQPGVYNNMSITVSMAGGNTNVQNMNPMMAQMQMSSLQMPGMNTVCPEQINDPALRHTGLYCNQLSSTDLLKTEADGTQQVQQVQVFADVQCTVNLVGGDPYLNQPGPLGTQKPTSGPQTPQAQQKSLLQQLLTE

In the case of `O=C(Nc1ccccc1Cl)/C(Cl)=C(\Cl)[S+]([O-])c1ccccc1` (centres undefined), the IC50 [1] is reported as 2.52 µM (active) and the EC50 [2] is reported as 3.56 µM (active).
With `Cc1cc(C)nc(/N=c2/ssnc2Cl)c1` the EC50 [3] was > 79.4 µM (not active), the EC50 [4] was 39.9 µM (inactive) and the EC50 [5] was 52.3 µM (active). The EC50 [6] was > 79.4 µM (not active).
For `Cc1ccc(C)c(S(=O)(=O)/N=C2\C=C(NS(=O)(=O)c3ccccc3)C(=O)c3ccccc32)c1`, the EC50 [7] was 6.68 µM (active).
In the case of `CCCCCCCCCCCCCCCCn1cc[n+](C)c1`, the AC50 [8] is reported as 22 µM (active) and the IC50 [9] is reported as 12.9 µM (active).
